Columns and labels:
BACE1 [1] = molecular target: T1, BACE1 (Homo sapiens, UniProt P56817); assay: BACE1 efficacy assay (FRET-based); type: biochemical; design: purchased Life Technologies P2985; conditions: 10 μM test compound
Procedure: The efficacy assay was performed as a FRET-based assay using a commercially available BACE1 kit (Life Technologies, P2985). 2 μl test compound at 10 μM (final concentration) and 15 μl BACE1 enzyme from the kit (final concentration 3 nM) were preincubated for 15 minutes at room temperature before addition of 15 μl of substrate from the kit (250 nM final concentration) and incubated for additional 90 minutes at room temperature. The assay plate was subsequently read in a Pherastar (Ex540/Em590). The enzyme activity observed in presence of test compound were normalized to the enzyme activity observed in presence of buffer and 10 μM (final concentration) of the high affinity BACE1 reference inhibitor (S)-6-[3-Chloro-5-(5-prop-1-ynyl-pyridin-3-yl)-thiophen-2-yl]-2-imino-3,6-dimethyl-tetrahydropyrimidin-4-one, respectively. The efficacy of the test compounds was evaluated at 10 μM (final concentration) and defined as the percent inhibition of the enzyme activity using the equation % inhibition=100%−normalized enzyme activity in percent.

BACE1 [2] = molecular target: T1, BACE1; assay: BACE1 binding assay (SPA-based); design: biotin (biotinylated form); made in house; host or cells: Freestyle HEK293 cells; conditions: pH 4.5, 10 nM radioligand
Procedure: The binding assay was performed as SPA-based assay using a biotinylated form of human BACE1 recombinantly expressed and subsequently purified from Freestyle HEK293 cells. The binding assay was run in a 50 mM sodium acetate buffer, pH 4.5 containing 50 mM NaCl and 0.03% Tween-20 in white clear bottom 384 plates (Corning #3653). […] The plates were incubated for one hour at room temperature and counted in a Wallac Trilux counter. Total and non-specific binding were determined using buffer and 1 μM (final concentration) of the high affinity BACE1 reference inhibitor (S)-6-[3-chloro-5-(5-prop-1-ynyl-pyridin-3-yl)-thiophen-2-yl]-2-imino-3,6-dimethyl-tetrahydro-pyrimidin-4-one, respectively. For each test compound, a IC50 value (the concentration mediating 50% inhibition of the specific binding of the radioligand) was determined from concentration-response curve and used to calculate the Ki from the equation Ki=IC50/(1+L/Kd), where L and Kd are the final concentration of the radioligand used in the assay and the dissociation constant of the radioligand, respectively. The Kd of the radioligand was determined from saturation binding experiments.

P-gp (MDR1) = assay: MDCK-MDR1 assay (permeability, efflux ratio); type: in vitro ADME; conditions: dog, Papp BA/Papp AB
Procedure: The permeability of the test compounds was assessed in MDCK-MDR1 cells that were cultured to confluency (4-6 days) in a 96 transwell plate. Test compounds were diluted with the transport buffer (HBSS+1% BSA) to a concentration of 0.5 μM and applied to the apical or basolateral side of the cell monolayer. Permeation of the test compounds from A to B direction or B to A direction was determined in triplicate over a 60-minute incubation time at 37° C. and 5% CO2 with a relative humidity of 95%. Test compounds were quantified by LC-MS/MS analysis based on the peaks area ratios of analyte/IS in both the receiver and donor wells of the transwell plate.
The apparent permeability coefficient Papp (cm/s) was calculated using the equation: […]
Where dCr/dt is the cumulative concentration of compound in the receiver chamber as a function of time (μM/s); Vr is the solution volume in the receiver chamber (0.05 mL on the apical side; 0.25 mL on the basolateral side); A is the surface area for the transport, i.e. 0.0804 cm^2 for the area of the monolayer; CO is the initial concentration in the donor chamber (μM).
Compounds are classified Pgp substrates when efflux ratio (Papp BA/Papp AB) is ≥2.

[3] = Clearance in hepatocytes, rat; type: in vitro ADME; conditions: read-out: CLint, Rat (L/h/kg) ± SD (converted)
Text: (§1) Deuterated compounds were compared to their non-deuterated parent counterparts to determine the impact of deuteration on clearance results

[4] = Clearance in microsomes, human; type: in vitro ADME; conditions: read-out: CLint, Human (L/h/kg) ± SD (converted)
Text: as §1

[5] = Clearance in microsomes, rat; type: in vitro ADME; conditions: read-out: CLint, Rat (L/h/kg) ± SD (converted)
Text: as §1

[6] = Clearance in microsomes, dog; type: in vitro ADME; conditions: read-out: CLint, Dog (L/h/kg) ± SD (converted)
Text: as §1

[7] = Clearance in hepatocytes, dog; type: in vitro ADME; conditions: read-out: CLint, Dog (L/h/kg) ± SD (converted)
Text: as §1

[8] = Clearance in hepatocytes, cyno; type: in vitro ADME; conditions: cynomolgus monkey, read-out: CLint, Cyno (L/h/kg) ± SD (converted)
Text: as §1

[9] = Clearance in microsomes, cyno; type: in vitro ADME; conditions: cynomolgus monkey, read-out: CLint, Cyno (L/h/kg) ± SD (converted)
Text: as §1

[10] = Clearance in hepatocytes, human; type: in vitro ADME; conditions: read-out: CLint, Human (L/h/kg) ± SD (converted)
Text: as §1

T1 sequence (P56817 46-501): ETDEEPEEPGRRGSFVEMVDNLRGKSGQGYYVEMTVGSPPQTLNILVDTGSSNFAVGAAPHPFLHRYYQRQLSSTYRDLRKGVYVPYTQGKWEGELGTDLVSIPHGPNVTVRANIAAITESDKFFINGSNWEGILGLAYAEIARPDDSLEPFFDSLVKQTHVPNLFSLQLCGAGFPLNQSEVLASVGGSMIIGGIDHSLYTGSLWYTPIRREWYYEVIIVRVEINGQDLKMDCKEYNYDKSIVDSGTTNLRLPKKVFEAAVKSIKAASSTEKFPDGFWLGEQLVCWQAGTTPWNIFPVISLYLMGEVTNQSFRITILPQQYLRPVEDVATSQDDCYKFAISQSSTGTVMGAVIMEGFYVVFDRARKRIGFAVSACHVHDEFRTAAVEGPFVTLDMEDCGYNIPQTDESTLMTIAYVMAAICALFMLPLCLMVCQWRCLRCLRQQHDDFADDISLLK

| inhibition at 10 µM (BACE1 [1]) [%] | Ki (BACE1 [2]) [nM] | efflux ratio at 60 min, 0.5 μM (P-gp (MDR1)) | CLint scaled at 0.1 µM [3] [L/h/kg] | CLint scaled at 0.3 µM [3] [L/h/kg] | CLint scaled at 1 µM [3] [L/h/kg] | CLint scaled at 1 µM [4] [L/h/kg] | CLint scaled at 1 µM [5] [L/h/kg] | CLint scaled at 1 µM [6] [L/h/kg] | CLint scaled at 0.1 µM [7] [L/h/kg] | CLint scaled at 0.3 µM [7] [L/h/kg] | CLint scaled at 1 µM [7] [L/h/kg] | CLint scaled at 0.1 µM [8] [L/h/kg] | CLint scaled at 0.3 µM [8] [L/h/kg] | CLint scaled at 1 µM [8] [L/h/kg] | CLint scaled at 1 µM [9] [L/h/kg] | CLint scaled at 0.1 µM [10] [L/h/kg] | CLint scaled at 0.3 µM [10] [L/h/kg] | CLint scaled at 1 µM [10] [L/h/kg] | Compound | also measured |
| --- | --- | --- | --- | --- | --- | --- | --- | --- | --- | --- | --- | --- | --- | --- | --- | --- | --- | --- | --- | --- |
| 97 | 67 | 0.85 | – | – | – | – | – | – | – | – | – | – | – | – | – | – | – | – | [2H]C([2H])([2H])Oc1cnc(C(=O)Nc2ccc(F)c([C@]3(CF)CC[C@](F)(CF)C(N)=N3)c2)cn1 [Example 3, N-[3-[(2S,5R)-6-amino-5-fluoro-2,5-bis(fluoromethyl)-2,3,4,5-tetrahydropyridin-2-yl]-4-fluoro-phenyl]-5-(methoxy-d3)pyrazine-2-carboxamide] | – |
| 100 | 9.8 | 0.77 | – | – | – | – | – | – | – | – | – | – | – | – | – | – | – | – | [2H]C([2H])([2H])Oc1cnc(C(=O)Nc2cc(F)c(F)c([C@]3(C)CC[C@@](F)(CF)C(N)=N3)c2)cn1 [Example 5, N-[3-[(2S,5S)-6-amino-5-fluoro-5-(fluoromethyl)-2-methyl-2,3,4,5-tetrahydropyridin-2-yl]-4,5-difluoro-phenyl]-5-(methoxy-d3)pyrazine-2-carboxamide] | – |
| 97 | 14 | 0.73 | – | – | – | – | – | – | – | – | – | – | – | – | – | – | – | – | [2H]C([2H])([2H])Oc1cnc(C(=O)Nc2ccc(F)c([C@]3(CF)CC[C@@](F)(CF)C(N)=N3)c2)cn1 [Example 4, N-[3-[(2S,5S)-6-amino-5-fluoro-2,5-bis(fluoromethyl)-2,3,4,5-tetrahydropyridin-2-yl]-4-fluoro-phenyl]-5-(methoxy-d3)pyrazine-2-carboxamide] | – |
| – | – | – | 1.4 | 1 | 2.1 | 0.5 | 1 | 21 | 98 | 84 | 57 | 80 | 32 | 14 | 12 | < 0.1 | < 0.1 | 0.29 | [2H]C([2H])([2H])Oc1ccc(C(=O)Nc2ccc(F)c([C@@]3(C(F)F)N=C(N)CCC3(F)F)c2)nc1 [Compound Y] | – |
| 99 | 84 | 0.96 | – | – | – | – | – | – | – | – | – | – | – | – | – | – | – | – | [2H]C([2H])([2H])Oc1cnc(C(=O)Nc2cc(F)c(F)c([C@]3(C)CC[C@](F)(CF)C(N)=N3)c2)cn1 [Example 2, N-[3-[(2S,5R)-6-amino-5-fluoro-5-(fluoromethyl)-2-methyl-2,3,4,5-tetrahydropyridin-2-yl]-4,5-difluoro-phenyl]-5-(methoxy-d3)pyrazine-2-carboxamide] | – |
| – | – | – | 1.7 | 1.5 | 1 | 0.51 | 1.3 | 25 | 112 | 101 | 64 | 137 | 135 | 75 | 34 | 1 | 0.95 | 0.72 | COc1cnc(C(=O)Nc2ccc(F)c([C@]3(C)CC[C@@](F)(CF)C(N)=N3)c2)cn1 [Compound Z] | CLint scaled at 0.1 µM ([4]; 0.1 microM): 1 L/h/kg; CLint scaled at 0.3 µM ([4]; 0.3 microM): 0.75 L/h/kg; CLint scaled at 0.1 µM ([5]; 0.1 microM): 2.7 L/h/kg; CLint scaled at 0.3 µM ([5]; 0.3 microM): 1.8 L/h/kg; CLint scaled at 0.1 µM ([6]; 0.1 microM): 40 L/h/kg; CLint scaled at 0.3 µM ([6]; 0.3 microM): 31 L/h/kg; CLint scaled at 0.1 µM ([9]; 0.1 microM): 70 L/h/kg; CLint scaled at 0.3 µM ([9]; 0.3 microM): 61 L/h/kg |

Reference: US20180186769A1, “6-AMINO-5-FLUORO-5-(FLUOROMETHYL)-2,3,4,5-TETRAHYDROPYRIDIN-2-YL-PHENYL-5-(METHOXY-D3)-PYRAZINE-2-CARBOXAMIDES AND FLUORINATED DERIVATIVES THEREOF AS BACE1 INHIBITORS” (H. Lundbeck A/S, priority 2016, published 2018)
